{"source": "patent US20240075087A1", "about": "“COMPOSITIONS AND METHODS COMPRISING HEMP EXTRACT FOR THE TREATMENT OF ANIMALS IN NEED” (Portland Technology Holdings LLC, priority 2021, published 2024)", "assay_type_in_all_cases": "cell-based, canine", "key": {"[1]": {"system": "HMPOS osteosarcoma cell line", "test": "48 hours MTT proliferation assay, HMPOS", "settings": "pure compound", "description": "3-(4,5-Dimethylthaizol-2-yl)-2,5-diphenyltetrazolium bromide (MTT) assays are performed on all previously described cell lines; CMT12, HMPOS, D17, Abrams and 17-71. […] Cells are treated with vehicle (methanol or ethanol/DMSO mix) or various concentrations of the CBD, CBDA or CBD-rich hemp extract ranging from 0.42 to 20 μg/mL in serial dilution for 48 hours. MTT assays are performed after 48 hours of treatment by adding 20 μL of MTT dye ([…] filtered 5 mg/mL in phosphate-buffered saline [PBS]) to each well and incubating at 37° C. in 5% CO2 for 2 hours. The media is then aspirated, washed once with 200 μL of PBS and then solubilized in 200 μL of ethanol. Immediate analysis of the optical density of each well is performed using a spectrophotometric plate reader (Epoch; Biotek, Winooski, Vermont) at a wavelength of 570 nm as previously described (e.g., Vega-Avila E and Pugsley M K, An overview of colorimetric assay methods used to assess survival or proliferation of mammalian cells, Proc West Pharmacol Soc., 2011, 54, pp. 10-14 which is incorporated herein by reference in its entirety). The percent proliferating cells of control for each concentration is averaged and reported as a mean+/—SD from triplicate wells over three experiments.\nFor CBD, CBDA and hemp extract concentrations needed to obtain a 50% inhibition of cell proliferation (IC50) are then calculated across experiments by Probit analysis using XLFit5 software (IDBS, Guildford, United Kingdom) for reporting the results for each cell line."}, "D17 cells": {"system": "D17 cells", "test": "Annexin V-FITC apoptosis assay, D17", "settings": "15 μg/mL CBD, 4 hours, VC 6.5±0.6%", "description": "(§1) Apoptosis after 4 and 8 hours treatment is measured using Annexin-V staining (Invitrogen Annexin V-FITC staining kit, Carlsbad, California). Briefly, cells are detached with Accumax (Innovative Cell Technologies, San Diego, California), collected and centrifuged for 10 m at 1000 g at 4° C. The pellet is washed once with PBS before resuspension in Annexin Binding Buffer (ABB; 10 mM HEPES, 140 mM NaCl, 2.5 mM CaCl2, pH 7.4) at a density of approximately 1×10^6 cell/mL. […] After the incubation, ABB is added to the cell suspension and kept on ice until fluorescence is measured with the BD FACScalibur flow cytometer using an argon laser (BD Biosciences, Ashland, Oregon). Ten thousand events are collected per sample. Analysis is performed with the FlowJo software (Version 10.7.1. Becton, Dickinson, Ashland, Oregon) by first gating based on the forward- and side-scatter characteristics for each cell line followed by Annexin V-FITC positive cells. Negative fluorescence controls are unstained cells. Three independent replicates are examined for each treatment."}, "CMT12 cell line": {"system": "CMT12 cell line", "test": "Annexin V-FITC apoptosis assay, CMT12", "settings": "15 μg/mL CBD, VC 10.9±2.0%", "description": "as §1"}, "[2]": {"system": "17-71, CMT12 and D17 cell lines", "test": "Time course Western blot of signalling pathways, autophagy and caspase 3", "description": "Cells are plated on 100 mm tissue culture-treated plates and incubated overnight in complete medium until 60% confluency is reached. […] Cells are harvested and lysed at each time point for control and CBD treated cells using mammalian lysis buffer (25 mM Tris, 100 mM NaCl, 1 mM EDTA, 1% Triton X-100, pH 7.4), and then centrifuged for 5 minutes at 12 000 g at 4° C. The supernatant is collected and the protein concentration is determined using the Bradford assay (Coomassie-dye; ThermoFisher Scientific Pierce, Waltham, Massachusetts). […] Membranes are incubated overnight in primary antibody solutions at a dilution of 1:1000 in TBST on a rocking platform at 4° C. Primary antibodies confirmed as cross reactive with canine cells or tissues include mouse extracellular regulated kinase (ERK) (R&D Biosciences, Boston, Massachusetts); rabbit anti-protein kinase B (AKT), Ser473 phosphorylated-AKT, stress-activated protein kinase/jun-amino-terminal kinase (SAPK/JNK), Thr183/Tyr185 phosphorylated-SAPK/JNK, mammalian target of rapamycin (mTOR), Ser2448 phosphorylated-mTOR, anti-Thr202/Tyr204 phosphorylated p44/42 MAPK (ERK1/2), anti-p38, anti-phosphorylated p38, anti-p62 and anti-LC3 A/B (Cell Signalling Technology, Danvers, Massachusetts)(e.g., Syrjä P, Anwar T, Jokinen T, Kyöstilä K, Jäderlund K H, Cozzi F, Rohdin C, Hahn K, Wohlsein P, Baumgärtner W, Henke D, Oevermann A, Sukura A, Leeb T, Lohi H, and Eskelinen E L, Basal Autophagy Is Altered in Lagotto Romagnolo Dogs with an ATG4D Mutation, Vet Pathol, 2017 November, 54(6), pp. 953-963, doi: 10.1177/0300985817712793; Gordon I K, Ye F, and Kent M, Evaluation of the mammalian target of rapamycin pathway and the effect of rapamycin on target expression and cellular proliferation in osteosarcoma cells from dogs, Amer J Vet Res, 2008, 69, pp. 1079-1084; Ikari A, Atomi K, Kinjo Y, and Sugatani J, Magnesium deprivation inhibits a MEK-ERK cascade and cell proliferation in epithelial Madin-Darby canine kidney cells, Life Sci, 2010, 86, pp. 766-773; and Levine C B, Bayle J, Biourge V, and Wakshlag J J, Effects and synergy of feed ingredients on canine neoplastic cell proliferation, BMC Vet Res, 2016, 12(1), 159, which are incorporated herein by reference in their entirety). Membranes are washed three times with TBST and incubated at room temperature for 1 hour in the corresponding secondary anti-rabbit IgG or anti-mouse IgG horseradish peroxidase-conjugated antibody at a dilution of 1:2000 (Cell Signalling Technology, Danvers, MA). Membranes are washed three times with TBST and visualized with a chemi-luminescent reagent (Clarity Western ECL Substrate; Bio-Rad, Hercules, California). Digital images are captured using an imaging system (Biospectrum 410; UVP, Upland, California or FluorChem E; Cell Biosciences, San Jose, California). Each blot is performed twice from two different experiments to confirm findings."}}, "data": [{"compound": "C=C(C)[C@@H]1CCC(C)=C[C@H]1c1c(O)cc(CCCCC)cc1O", "note": "[CBD, cannabidiol]", "values": [{"measurement": "IC50", "setting": "[1]; Canis lupus familiaris, read-out: IC50 (Probit)", "result": 3.6, "unit": "µg/mL"}, {"measurement": "concentrations that significantly diminished proliferation vs vehicle control", "setting": "[1]; P<0.05", "result": "≥ 5", "unit": "µg/mL"}, {"measurement": "Annexin V positive staining cells", "setting": "D17 cells", "result": "9.4±1.8", "unit": "%"}, {"measurement": "Annexin V positive staining cells", "setting": "CMT12 cell line; 4 hours", "result": "15.7±2.2", "unit": "%"}, {"measurement": "Annexin V positive staining cells", "setting": "CMT12 cell line; 8 hours", "result": "21.5±2.5", "unit": "%"}, {"measurement": "caspase 3 activation", "setting": "[2]; 10 μg/mL CBD, 2, 4, 8 hours", "result": "activation of caspase 3 which can also be seen at 2 hours in the 17-71 cells, but is not evident until hour 8 in the CMT12 and D17 CBD treated cells"}, {"measurement": "AKT, phosphorylated-AKT, mTOR and phosphorylated-mTOR immunoblots", "setting": "[2]; 10 μg/mL CBD, 2, 4 and 8 hours", "result": "no depression or increased intensity of the signal over time"}, {"measurement": "LC3II proportion of LC3 protein", "setting": "[2]; 10 μg/mL CBD, 2 to 8 hours, all three cell lines", "result": "increase in the LC3II proportion of LC3 protein"}, {"measurement": "ERK and JNK phosphorylation", "setting": "[2]; 10 μg/mL CBD, 8 hour time-course vs methanol vehicle", "result": "repeatable increases in both ERK and JNK phosphorylation across all three cell lines"}, {"measurement": "autophagy cargo carrier protein p62 (western blotting)", "setting": "[2]; 10 μg/mL CBD, over 8 hours", "result": "marked decrease"}, {"measurement": "p38 phosphorylation and activation", "setting": "[2]; CBD treatment", "result": "minimal influence on the p38 phosphorylation and activation"}, {"measurement": "cleaved caspase 3 (17 Kda) immunoblotting", "setting": "[2]; after 8 and 16 hours of CBD treatment vs methanol vehicle control", "result": "cleaved caspase across all cell lines at both time points"}]}]}
